{"source": "patent US20210115000A1", "about": "“NILE RED DERIVATIVES FOR IMPROVED RATIOMETRIC IMAGING FOR NERVE SPECIFIC CONTRAST” (Oregon Health & Sciences University, priority 2018, published 2021)", "key": {"[1]": {"test_system": "sciatic nerve or brachial plexus nerve sites (adipose, nerve, muscle tissue)", "test": "In vivo imaging following direct/topical administration on rodent nerve sites", "parameters": "species or system male CD-1 mice", "details": "for nerve accumulation: summary of in vitro, ex vivo and in vivo characterization", "description": "In vivo images were acquired using a previously published, custom-built small animal fluorescence imaging system, described briefly here.^27 Fluorescent images were obtained using a Qimaging EXi Blue monochrome camera (Surrey, British Columbia, CA) with a removable Bayer mask for collection of co-registered color and fluorescence images. A Photofluor II broad band light source (89 North) was expanded onto the surgical field through a liquid light guide and used unfiltered for white light illumination. Nile Red and NR5 were excitated using a 545 t 12.5 nm bandpass filter, while fluorescence emission images were collected with a 605±35 nm bandpass filter. Oxazine 4 (Exciton, West Chester, Ohio) was used for nerve and adipose co-staining and ratiometic imaging studies. Oxazine 4 was excited using a 620±30 nm bandpass filter, while fluorescence emission images were collected through a 700±37.5 nm bandpass filter. Approval for the use of animals in the study was obtained from the Institutional Animal Care and Use Committee (IACUC) at Oregon Health and Science University (OHSU). In vivo staining studies were carried out on male CD-1 mice using an optimized direct/topical administration protocol.^2 Staining was performed concurrently on no more than two nerve sites (sciatic nerve or brachial plexus) per mouse. Nile Red and all Nile Red derivatives were formulated in a previously published co-solvent formulation (10% DMSO, 5% Kolliphor, 63.75% serum and 21.25% PBS^14) at a final concentration of 100 μM. Each formulated fluorophore was incubated for 5 minutes on the nerve site (n=4 nerve sites/fluorophore), followed by 9 short flushes with PBS. The nerve site was then incubated with blank co-solvent not containing fluorophore for 5 minutes, followed again by 9 short flushes with PBS."}, "[2]": {"test_system": "U2OS human osteosarcoma cell line", "test": "Nile Red derivative cell staining and imaging, fixed and live cells", "assay_type": "cell-based", "details": "1 μM; for fluorescence intensity in fixed cells: U2OS fixed with 4% PFA, imaged without washing; for fluorescence intensity in fixed cells / fluorescence intensity in live cells without washing / structures observed in live cells without washing: 5 min; for fluorescence intensity in live cells without washing / structures observed in live cells without washing: U2OS live, imaged in staining solution", "experimental": "The U2OS human osteosarcoma cell line was cultured in Dulbecco's Modified Eagle Medium (DMEM, Thermo Fisher Scientific, Waltham, Mass.) with 10% fetal bovine serum (FBS, VWR, Radnor, Pa.) and 1% Penicillin/Steptomycin 100× (Thermo Fisher Scientific) at 37° C. in 5% CO2. For live cell imaging studies, Fluorobrite DMEM media (Thermo Fisher Scientific) was used in place of DMEM. For imaging studies, cells were grown in 96-well glass bottom plates (Cellvis, Mountain View, Calif.) for 48 hours, with a final confluence of <80%. Nile Red and its derivatives were prepared at 1-10 mM stock concentration in DMSO and diluted into media or buffer for cell staining and imaging studies.\nCell staining studies were completed on fixed and live U2OS cells using Nile Red and each synthesized Nile Red derivative described as follows. For fixed cell staining, cells were washed once with 1× phosphate buffered saline (PBS), then fixed with 4% paraformaldehyde (PFA) for 20 minutes at room temperature. The PFA was removed and each well was washed three times for 5 mins per wash (3×5 mins) with 1×PBS. The Nile Red fluorophores were diluted into 1×PBS to a final concentration of 1 μM, incubated for 5 minutes with the cells, and images were collected without washing. Live cell staining was completed using two methods. First, cells were washed once with Fluorobrite DMEM. The Nile Red fluorophore solution was prepared in Fluorobrite DMEM by diluting to a final concentration of 1 μM for staining, where cells were stained for 5 minutes. The fluorophore containing media was removed and the cells were fixed for 20 minutes using 4% PFA. Cells were then washed 3×5 mins with Fluorobrite DMEM prior to imaging. Second, cells were washed with Fluorobrite DMEM without FBS once for 5 minutes. Nile Red fluorophore solutions were prepared in Fluorobrite without FBS at 1 μM final concentration for cell staining. The cells were stained with the prepared solution for 5 minutes and imaged in the staining solution. All images were collected at their ideal exposure times to permit visualization of stained intracellular structures.\nAll ex vivo and cellular fluorescence and white light images were collected using a Zeiss AxioObserver inverted fluorescence microscope (Carl Zeiss, Oberkochen, Germany). All cell images were collected at 40× magnification and all tissue section images were collected at 10× magnification. Fluorescence excitation was completed using a Photofluor II broad band light source (89 North, Burlington, Vt.) filtered with a 545±12.5 nm bandpass excitation filter. Fluorescence images were collected using a 605±35 nm bandpass emission filter and a AxioCam 506 monochromo camera (Zeiss). All Filters were Purchased from Chroma Technologies (Bellows Falls, Vt.)."}, "[3]": {"details": "100 μM, immediately following direct administration"}, "[4]": {"details": "30 minutes post direct administration"}, "[5]": {"details": "immediately following direct administration"}}, "note": "Entries after “also recorded” stand apart in the source; their conditions may differ.", "data": [{"smiles": "CCN(CC)c1ccc2nc3c4ccc(-c5ccc(C#N)cc5)cc4c(=O)cc-3oc2c1", "note": "[NR5, 4-(9-(diethylamino)-5-oxo-5H-benzo[a]phenoxazin-3-yl)benzonitrile]", "values": [{"measurement": "tissue specific fluorescence intensity", "setting": "[1]; [3]", "result": "highest fluorescence signal compared to the other Nile Red derivatives; also recorded: highest fluorescence intensity in the adipose, nerve and muscle tissues of the synthesized Nile Red derivatives"}, {"measurement": "adipose to nerve contrast", "setting": "[1]; [4]", "result": "higher adipose-to-nerve contrast compared to Nile Red; also recorded: increased"}, {"measurement": "adipose to muscle ratio", "setting": "[1]; [5]", "result": "lower than Nile Red, adipose to muscle contrast was similar"}, {"measurement": "adipose to nerve ratio", "setting": "[1]; [5]", "result": "increased contrast over control autofluorescence with similar adipose to nerve contrast"}, {"measurement": "tissue-specific contrast, adipose signal", "setting": "[1]; out to 120 minutes after direct administration", "result": "adipose signal was maintained throughout the 120 minute imaging time"}, {"measurement": "nerve accumulation", "setting": "[1]", "result": "minimal nerve accumulation"}, {"measurement": "fluorescence intensity in fixed cells", "setting": "[2]", "result": "bright"}, {"measurement": "fluorescence intensity in live cells without washing", "setting": "[2]", "result": "brightest of the synthesized derivatives"}, {"measurement": "structures observed in live cells without washing", "setting": "[2]", "result": "Prominent lipid droplet like structures"}, {"measurement": "fluorescence intensity in both the fixed and live in vitro imaging studies", "setting": "[2]; U2OS", "result": "brightest fluorescence intensity of the Nile Red derivatives"}]}, {"smiles": "CCN(CC)c1ccc2nc3c4ccccc4c(=O)cc-3oc2c1", "note": "[Nile Red]", "values": [{"measurement": "tissue specific fluorescence intensity", "setting": "[1]; [3]", "result": "highest fluorescence signal compared to the other Nile Red derivatives; also recorded: strong fluorescence intensity"}, {"measurement": "tissue specific fluorescence intensity", "setting": "[1]; 30 minutes after direct administration", "result": "decrease in adipose, nerve and muscle fluorescence"}, {"measurement": "adipose to muscle contrast", "setting": "[1]; [4]", "result": "greatest"}, {"measurement": "adipose to nerve contrast", "setting": "[1]; [4]", "result": "decreased"}, {"measurement": "adipose to muscle ratio", "setting": "[1]; [5]", "result": "greatest adipose to muscle contrast"}, {"measurement": "adipose to nerve ratio", "setting": "[1]; [5]", "result": "increased contrast over control autofluorescence with similar adipose to nerve contrast"}, {"measurement": "nerve accumulation", "setting": "[1]", "result": "some nerve accumulation"}, {"measurement": "fluorescence intensity in fixed cells", "setting": "[2]", "result": "bright"}, {"measurement": "fluorescence intensity in live cells without washing", "setting": "[2]", "result": "brightest overall"}, {"measurement": "structures observed in live cells without washing", "setting": "[2]", "result": "Prominent lipid droplet like structures"}]}]}
